Measurements as given in patent US8796201B2 (The Board of Trustees of the Leland Stanford Junior …, priority 2002, dated 2014).
“Also recorded” adds a separate entry of the source. Where no end group is shown, it is not given here.

Legend:
EPB2 = biological target: T1, EPB2 (Hordeum vulgare, UniProt P25250); assay: Inhibition of EPB2 α2-gliadin digestion; type: biochemical, barley (Hordeum vulgare subsp. vulgare)
T1 construct: made in house; host or cells: E. coli BL21, plasmid pMTB1 (pET28b), inclusion bodies solubilised in 7 M urea
T1 sequence (P25250 134-373): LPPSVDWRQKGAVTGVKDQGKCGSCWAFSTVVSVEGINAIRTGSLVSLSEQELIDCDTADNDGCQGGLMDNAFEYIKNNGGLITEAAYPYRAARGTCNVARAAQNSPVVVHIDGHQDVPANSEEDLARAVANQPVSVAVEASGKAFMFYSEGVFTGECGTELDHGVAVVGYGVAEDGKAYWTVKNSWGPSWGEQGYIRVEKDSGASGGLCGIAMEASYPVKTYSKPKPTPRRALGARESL
From the text: The pH optimum of proEPB2 activation and α2-gliadin digestion is 2.4-3.5, which can therefore provide a treatment for Celiac Sprue consisting of oral administration of proEPB2.

[1] = system: rat brush border membrane (BBM) peptidases; type: in vitro ADME; details: kidney or brush border membranes
Experimental: To investigate the digestion of gluten, liquid chromatography coupled mass spectroscopy analysis (LC-MS-MS) was utilized to investigate the pathways and associated kinetics of hydrolysis of immunodominant gliadin peptides treated with rat BBM preparations. Because the rodent is an excellent small animal model for human intestinal structure and function, rat BBM was chosen as a suitable model system for these studies.
BBM fractions were prepared from rat small intestinal mucosa as described in Ahnen et al. (1982) J. Biol. Chem. 257, 12129-35. […] No proline aminopeptidase (EC 3.4.11.5) or prolyl endopeptidase activity (PEP, EC 3.4.21.26) activity was detectable (<5 μU/μg). Alkaline phosphatase and sucrase were used as control BBM enzymes with activities of 66 μU/μg and 350 μU/μg, respectively.
BBM fractions were partially purified from the small intestinal mucosa of adult female rats maintained on an ad libitum diet of wheat-based standard rodent chow. Total protein content was determined by a modified method of Lowry with BSA as a standard. Alkaline phosphatase activity was determined with nitrophenyl phosphate. Sucrase activity was measured using a coupled glucose assay. […] PEP activity was determined continuously with 0.4 mM Z-Gly-Pro-pNA in PBS:H2O:dioxane (8:1.2:0.8) at 30° C. One unit is the consumption of 1 μmol substrate per minute.
Proteolysis with the BBM preparation was investigated using the peptide (SEQ ID NO:1) […], a product of chymotryptic digestion of α-9 gliadin (Arentz-Hansen et al. (2000) J. Exp. Med. 191, 603-12). […] It was subjected to BBM digestion, followed by LC-MS-MS analysis. A standard 50 μl digestion mixture contained 100 μM of synthetic peptide, 10 μM tryptophan and Cbz-tryptophan as internal standards, and resuspended BBM preparations with a final protein content of 27 ng/μl and exogenous proteins, as indicated, in phosphate buffered saline. After incubation at 37° C. for the indicated time, the enzymes were inactivated by heating to 95° C. for 3 minutes. The reaction mixtures were analyzed by LC-MS (SpectraSystem, ThermoFinnigan) using a C18 reversed phase column (Vydac 218TP5215, 2.1×150 mm) with water:acetonitrile:formic acid (0.1%):trifluoroacetic acid (0.025%) as the mobile phase (flow: 0.2 ml/min) and a gradient of 10% acetonitrile for 3 minutes, 10-20% for 3 minutes, 20-25% for 21 minutes followed by a 95% wash. Peptide fragments in the mass range of m/z=300-2000 were detected by electrospray ionization mass spectroscopy using a LCQ ion trap and their identities were confirmed by MSMS fragmentation patterns.
BBM fractions were prepared from rat small intestinal mucosa.

[2] = system: gastric and pancreatic proteases; assay: Gastric and pancreatic protease digestion of recombinant α2-gliadin; type: in vitro ADME; details: extended reaction times
From the text: […]. […] No long intermediate is observed to accumulate.

[3] = system: human brush border membrane (BBM); type: in vitro ADME; details: kidney or brush border membranes, 100 μM
From the text: (SEQ ID NO:12) […]

[4] = In vivo perfusion of peptides through rat jejunum; details: 15-20 cm jejunum segment, residence time 20 min
Experimental: FIG. 5. In vivo brush border membrane digestion of peptides.
In Vivo Endopeptidase Activity. An adult (female or male) rat was anesthetized and maintained at 36-37° C. during the entire surgical procedure. The peritoneal cavity was opened, and a small incision was made at the beginning and the end of a 15-20 cm jejunum segment. Polyethylene catheters were inserted and secured into the two ends. The input catheter was connected with a pump-driven syringe filled with a solution. The jejunum segment was perfused initially with PBS buffer to remove any residual debris at a flow rate of 0.4 ml/min. Purified peptide solutions (peptide concentration ranges from 25-100 μM) were then perfused at 0.4 ml/min through the jejunum segment with a 10-40 min residence time. In the case of a co-perfusion, the input catheter is connected with two simultaneous syringes, one with a peptide solution and the other with the prolyl endopeptidase solution (concentration ranges from 50-500 μU/μl). Fluid from the output catheter was collected into small centrifuge tubes in dry ice for subsequent analysis. The collected digestive products were analyzed by HPLC on a C18 column.

trypsin = assay: trypsin
chymotrypsin = assay: chymotrypsin
elastase = elastase at a high (non-physiological) concentration of 100 ng/μl
[5] = BBM with captopril in phosphate buffered saline:Tris buffered saline=9:1; details: rat, up to overnight
[6] = resuspended rat brush border membrane (BBM) preparations in phosphate buffered saline; details: 37° C.
[7] = rat brush border membrane (BBM) protein preparations, 27 ng/μl, in phosphate buffered saline; details: 37° C, up to overnight
[8] = system: carboxypeptidase A (C-0261, Sigma) and/or leucine aminopeptidase (L-5006, Sigma); assay: 10 μg/ml carboxypeptidase A and/or 5.9 μg/ml leucine aminopeptidase; details: 37° C., up to 160 min
[9] = system: rabbit lung DCP (Cortex Biochemicals, CA); assay: BBM with exogenous rabbit lung DCP in phosphate buffered saline:Tris buffered saline=9:1; details: rat, up to overnight
[10] = system: DPP IV from Aspergillus fumigatus; assay: rat BBM with exogenous DPP IV from Aspergillus fumigatus (0.28 μU DPP IV/ng BBM protein); details: 37° C., up to four hours
[11] = system: prolyl endopeptidase (PEP, specific activity 28 μU/pg) from Flavobacterium meningosepticum (US Biological, MA); assay: 27 ng/μl brush border membranes with exogenous prolyl endopeptidase from Flavobacterium meningosepticum; details: rat, up to one hour

**Q.** With `CC(=O)N[C@@H](CC(C)C)C(=O)N[C@@H](CC(C)C)C(=O)N[C@H](C=O)CCCNC(=N)N` [leupeptin] as the molecule, how does the “effect on α2-gliadin digestion by EPB2” value (EPB2) read?
**A.** The value was “inhibits this activity”.

**Q.** Which half-life of digestion [1] does the source give for “LQLQPFPQPQLPYPQPQLPYPQPQLPYPQPQPF [33-mer]” here?
**A.** Its half-life of digestion is over 20 h.

**Q.** What about the “stability toward gastric and pancreatic proteases” value [2] of the same molecule?
**A.** The value was “remained intact despite prolonged exposure to proteases”.

**Q.** And the “Amount of Peptides Digested after 15 hours” value [3]?
**A.** The value was under 20%.

**Q.** What about the “stability in the perfusion experiment” value [4] of the same molecule?
**A.** The value was “most of the 33-mer gliadin peptide remained intact”.

**Q.** Which not cleaved (trypsin) does the source give for PQPQLPYPQPQLPY here?
**A.** The not cleaved was “No proteolysis was detected”.

**Q.** What about the not cleaved (chymotrypsin) of the same molecule?
**A.** The not cleaved was “No proteolysis was detected”.

**Q.** And the cleaved bond (elastase)?
**A.** Its cleaved bond is “Q-L”.

**Q.** And the fragment found [5]?
**A.** Its fragment found is “PQPQLPYPQPQLP”.

**Q.** What about the cleaved bond [6] of the same molecule?
**A.** The cleaved bond was “P-Y, first_seen”.

**Q.** What about the not cleaved [7] of the same molecule?
**A.** The not cleaved was “no observed N-terminal processing”.

**Q.** What about the fragment found [8] of the same molecule?
**A.** The fragment found was “PQPQLPYPQPQLP”.

**Q.** What about the fragment found [9] of the same molecule?
**A.** Its fragment found is “PQPQLPYPQPQLP”.

**Q.** For QLQPFPQPQLPY, which fragment found [10] is on record?
**A.** The fragment found was “QLQPFPQPQLP”.

**Q.** And the fragment found [8]?
**A.** The fragment found was “QLQPFPQPQLP; also recorded: QPFPQPQLP”.

**Q.** And the cleaved bond [11]?
**A.** The cleaved bond was “P-Q, major”.
